“Also recorded” adds a separate entry of the source.
Columns and labels:
HCT116 (p53^+/+) cells = assay: Cell cycle profile by FACS in HCT116 p53+/+ cells; type: cell-based; settings: 5 μg EGFP construct, CD20-selected cells, propidium iodide
Description: To address this issue, we co-transfected EGFP-NS, EGFP-BOXI, EGFP-S20D or EGFP-PRO with pCMV-CD20 cell surface marker into HCT116 (p53^+/+) cells, selected the transfected population using a FITC-conjugated CD20 antibody, sorted them by FACS and the resultant cell cycle profile of the transfected population determined by propidium iodide staining of DNA. The amount of EGFP-peptide construct and levels of EGFP protein produced were identical to those used in transcription assays (FIG. 10 and data not shown), so a direct correlation can be made between the reduction in transcription by the EGFP-S20D or EGFP-PRO peptides and changes in cell-cycle parameters. […] The MDM2-binding peptides have been well-documented to have a positive affect on […] dependent transcription (Bottger, Bottger et al. 1996).
(§1) To select the transfected cell population, cells were co-transfected with 3 μg pCMV-CD20 and incubated for 24 hours before washing and detaching cells in PBS/5 mM EDTA. Cells were then harvested and resuspended in serum free media with FITC-conjugated anti-CD20 (Becton Dickinson) and incubating for 30 minutes on ice. Cells were then washed twice with PBS/1% FBS and resuspended in 100 μl PBS before adding 900 μl ice-cold ethanol dropwise. After incubation at 4° C. for >2 hours cells were stained with Pi (40 μg/ml) and treated with RNAse (100 μg/ml). Transfected cells were gated using the FL1 channel and PI staining detected with the FL2 channel and the resultant cell cycle profiles of 2000 cells were analysed using a FACScan and CellQuest software (Becton Dickinson).

[1] = test system: p300 induction of p53-dependent gene expression from the p21 promoter; assay: p53/p300 co-transfected Saos-2 cells, p21-Luc reporter; type: cell-based; settings: for p53-p300 co-stimulated transactivation, p21 promoter: Saos-2 cells co-transfected with p53 and p300, increasing EGFP construct; for p53 protein levels (immunoblot): Saos-2 cells, 1 μg EGFP construct, relative to EGFP-NS control
Method: FIG. 3: In vivo inhibition of ectopically expressed p53 from the p21 promoter by phospho-peptide mimetic fusion proteins. (A) Stimulation of p53 activity by cotransfection with p300. Saos-2 cells were transiently co-transfected with 1 μg of pCMV-p53, 2 μg p21-Luc, 1 μg pCMVβ-Gal and increasing amounts of pCMV-βp300. The cells were harvested 30 hours post-transfection and the relative activity is expressed as a ratio of luciferase activity to β-Gal activity (Δ negative control, 0 ng, 1 μg, 2 μg and 5 μg). (B) EGFP-S20D peptide ([…] LPENN) inhibits p300 induction of p53-dependent gene expression. Saos-2 cells were transiently co-transfected with 1 μg pCMV-p53, 2 μg p21-Luc, 5 μg pCMVβp300, 1 μg of pCMVβ-Gal and increasing amounts of EGFP-constructs as indicated. The cells were processed as described in the legend of FIG. 3A (▴ control, control, 1 μg, 2 μg and 5 μg). (C) Immunoblots of p53 and EGFP-fusion proteins in transfected Saos-2 cells. Lysates from transfected Saos-2 cells [as described in FIG. 3B] were normalized for protein content by Bradford and loading for immunoblots was confirmed by Red Ponceau staining. The constructs transfected are highlighted by the legend above the Figure (increasing amounts of EGFP fused to NS, BOX-I, S15D, T18D, and S20D BOX-I domain peptides) and are described below the Figure as a “+”. The levels of p53, EGFP, and p21 proteins are in the top, middle, or bottom panel, respectively. p53-dependent activity (in RLU's) from FIG. 3B is listed underneath the immunoblots for direct comparison of p53 activity to p53 protein and EGFP protein levels.
(§2) A final model used to examine whether the phospho-peptide mimetic peptides inhibit p53 activity involved the use of the p53-null cell line Saos-2 co-transfected with p300, p53, and the indicated reporter or expression vectors (FIG. 3). Transient co-transfection of increasing amounts of p300 with p53 into Saos-2 cells lead to maximal stimulation of p53-dependent gene expression from the p21 promoter (FIG. 3A) or the bax promoter (FIG. 5A).
A375 and Saos-2 cells were maintained in DMEM (Gibco BRL) supplemented with 10% FBS and incubated at 37° C. with an atmosphere of 10% CO2. Transient transfections and ELISAs were carried out as previously described (Dornan and Hupp 2001). Full-length p300 and His-p300 infected Sf9 cells were harvested 72 hours post-infection as described previously (Shikama, Lee et al. 1999; Dornan and Hupp 2001). Sf9 expressed wtp53 and p53ΔProAE tetramers were purified by heparin-sepharose chromatography as described previously (Hupp and Lane 1994). Transfected lysates were run on a 12% SDS-PAGE and transferred to nitrocellulose membrane and even protein loading confirmed by Ponceau S (Sigma) staining. Primary antibodies anti-p53 (DO-1), anti-p21 (Ab-1) (Calbiochem), anti-Bax (N-20) (Santa Cruz Biotechnology Inc.), anti-EGFP (Clontech) were used and the appropriate secondary antibody conjugated to HRP. The signal detected by Enhanced Chemo-luminescence was developed using autoradiography film (Amersham).

[2] = test system: p300 induction of p53-dependent gene expression from the bax promoter; assay: p53/p300 co-transfected Saos-2 cells, bax-Luc reporter; type: cell-based; settings: Saos-2 cells co-transfected with p53 and p300, increasing EGFP construct
Method: FIG. 5: In vivo inhibition of ectopically expressed p53 activity from the bax promoter by phospho-peptide mimetic fusion proteins. (A) Stimulation of p53 activity by cotransfection with p300. Saos-2 cells were transiently co-transfected with 1 μg of pCMV-p53, 2 μg bax-Luc, 1 μg pCMVβ-Gal and increasing amounts of pCMV-βp300. The cells were harvested 30 hours post-transfection and the relative activity is expressed as a ratio of luciferase activity to β-Gal activity. (B) EGFP-S20D peptide fusion protein inhibits p300 induction of p53-dependent gene expression. Saos-2 cells were transiently co-transfected with 1 μg pCMV-p53, 2 μg bax-Luc, 5 μg pCMVβp300, 1 μg of pCMVβ-Gal and increasing amounts of EGFP-S20D or EGFP-control. Cells were harvested 30 hours post-transfection and relative activity is expressed as a ratio of luciferase activity to β-Gal activity ( ? control, 0 μg, 1 μg, 2 μg and 5 μg).
as §2
A375 and Saos-2 cells were maintained in DMEM (Gibco BRL) supplemented with 10% FBS and incubated at 37° C. with an atmosphere of 10% CO2. Transient transfections and ELISAs were carried out as previously described (Dornan and Hupp 2001). Full-length p300 and His-p300 infected Sf9 cells were harvested 72 hours post-infection as described previously (Shikama, Lee et al. 1999; Dornan and Hupp 2001). Sf9 expressed wtp53 and p53ΔProAE tetramers were purified by heparin-sepharose chromatography as described previously (Hupp and Lane 1994). […] The signal detected by Enhanced Chemo-luminescence was developed using autoradiography film (Amersham).

[3] = test system: p53-dependent transactivation of the p21 promoter; assay: p21-Luciferase reporter of endogenous p53-dependent transcription in A375 cells; type: cell-based; settings: for basal p53-dependent transactivation of the p21 promoter: cycling A375 cells, transient transfection, p21-Luc / β-Gal
Method: Proliferating A375 cells were transiently co-transfected with EGFP-NS, EGFP-BOX-I, EGFP-S15D, EGFP-T18D or EGFP-S20D and control or p21-Luciferase reporter constructs. Changes in the basal p53-dependent transcription activity was quantitated 24 hours post-transfection.
A375 and HCT116 cells both containing a wild-type p53 pathway were maintained in DMEM (Gibco BRL) supplemented with 10% FBS and incubated at 37° C. with an atmosphere of 10% CO2. For transient transfections, 3×10^5 cells were plated out in 6-well dishes and transfected with LipofectAMINE (Gibco BRL). The exact quantity of DNA transfected is indicated in each experiment and where necessary, carrier DNA was incorporated to keep the same quantity of DNA consistent in each transfecton. To monitor transfection efficiency, pCMV-βGal was included in each transfection. Unless otherwise stated, cells were harvested 24 hours post-transfection and lysed in Reporter Lysis Buffer and the corresponding luciferase and β-Gal assay carried out according to the manufacturers protocol (Promega, UK).

HCT116 p53^−/− cells = assay: Cell cycle profile by FACS in HCT116 p53-/- cells; type: cell-based; settings: 5 μg EGFP construct, CD20-selected cells, propidium iodide
Method: With the arrest in G2/M observed in p53^+/+ cells using the PRO and S20D fusion peptides, it was determined whether the peptides would have any effect on the cell cycle profile in a p53^−/− cell line. Using the same parameters as in the p53^+/+ cell line, the effects on the cell cycle were determined (FIGS. 12B and 12D).
as §1

full-length p300 protein = target: T1, full-length p300 protein (Homo sapiens, UniProt Q09472); assay: ELISA binding of full-length p300 to biotinylated peptides; settings: biotinylated peptide titrated onto streptavidin-coated wells
T1 construct: Full-length p300 and p300(1135-2414) baculovirus were a gift from N. B. La Thangue; made in house; host or cells: Sf9 insect cells (baculovirus)
T1 sequence (Q09472 whole entry): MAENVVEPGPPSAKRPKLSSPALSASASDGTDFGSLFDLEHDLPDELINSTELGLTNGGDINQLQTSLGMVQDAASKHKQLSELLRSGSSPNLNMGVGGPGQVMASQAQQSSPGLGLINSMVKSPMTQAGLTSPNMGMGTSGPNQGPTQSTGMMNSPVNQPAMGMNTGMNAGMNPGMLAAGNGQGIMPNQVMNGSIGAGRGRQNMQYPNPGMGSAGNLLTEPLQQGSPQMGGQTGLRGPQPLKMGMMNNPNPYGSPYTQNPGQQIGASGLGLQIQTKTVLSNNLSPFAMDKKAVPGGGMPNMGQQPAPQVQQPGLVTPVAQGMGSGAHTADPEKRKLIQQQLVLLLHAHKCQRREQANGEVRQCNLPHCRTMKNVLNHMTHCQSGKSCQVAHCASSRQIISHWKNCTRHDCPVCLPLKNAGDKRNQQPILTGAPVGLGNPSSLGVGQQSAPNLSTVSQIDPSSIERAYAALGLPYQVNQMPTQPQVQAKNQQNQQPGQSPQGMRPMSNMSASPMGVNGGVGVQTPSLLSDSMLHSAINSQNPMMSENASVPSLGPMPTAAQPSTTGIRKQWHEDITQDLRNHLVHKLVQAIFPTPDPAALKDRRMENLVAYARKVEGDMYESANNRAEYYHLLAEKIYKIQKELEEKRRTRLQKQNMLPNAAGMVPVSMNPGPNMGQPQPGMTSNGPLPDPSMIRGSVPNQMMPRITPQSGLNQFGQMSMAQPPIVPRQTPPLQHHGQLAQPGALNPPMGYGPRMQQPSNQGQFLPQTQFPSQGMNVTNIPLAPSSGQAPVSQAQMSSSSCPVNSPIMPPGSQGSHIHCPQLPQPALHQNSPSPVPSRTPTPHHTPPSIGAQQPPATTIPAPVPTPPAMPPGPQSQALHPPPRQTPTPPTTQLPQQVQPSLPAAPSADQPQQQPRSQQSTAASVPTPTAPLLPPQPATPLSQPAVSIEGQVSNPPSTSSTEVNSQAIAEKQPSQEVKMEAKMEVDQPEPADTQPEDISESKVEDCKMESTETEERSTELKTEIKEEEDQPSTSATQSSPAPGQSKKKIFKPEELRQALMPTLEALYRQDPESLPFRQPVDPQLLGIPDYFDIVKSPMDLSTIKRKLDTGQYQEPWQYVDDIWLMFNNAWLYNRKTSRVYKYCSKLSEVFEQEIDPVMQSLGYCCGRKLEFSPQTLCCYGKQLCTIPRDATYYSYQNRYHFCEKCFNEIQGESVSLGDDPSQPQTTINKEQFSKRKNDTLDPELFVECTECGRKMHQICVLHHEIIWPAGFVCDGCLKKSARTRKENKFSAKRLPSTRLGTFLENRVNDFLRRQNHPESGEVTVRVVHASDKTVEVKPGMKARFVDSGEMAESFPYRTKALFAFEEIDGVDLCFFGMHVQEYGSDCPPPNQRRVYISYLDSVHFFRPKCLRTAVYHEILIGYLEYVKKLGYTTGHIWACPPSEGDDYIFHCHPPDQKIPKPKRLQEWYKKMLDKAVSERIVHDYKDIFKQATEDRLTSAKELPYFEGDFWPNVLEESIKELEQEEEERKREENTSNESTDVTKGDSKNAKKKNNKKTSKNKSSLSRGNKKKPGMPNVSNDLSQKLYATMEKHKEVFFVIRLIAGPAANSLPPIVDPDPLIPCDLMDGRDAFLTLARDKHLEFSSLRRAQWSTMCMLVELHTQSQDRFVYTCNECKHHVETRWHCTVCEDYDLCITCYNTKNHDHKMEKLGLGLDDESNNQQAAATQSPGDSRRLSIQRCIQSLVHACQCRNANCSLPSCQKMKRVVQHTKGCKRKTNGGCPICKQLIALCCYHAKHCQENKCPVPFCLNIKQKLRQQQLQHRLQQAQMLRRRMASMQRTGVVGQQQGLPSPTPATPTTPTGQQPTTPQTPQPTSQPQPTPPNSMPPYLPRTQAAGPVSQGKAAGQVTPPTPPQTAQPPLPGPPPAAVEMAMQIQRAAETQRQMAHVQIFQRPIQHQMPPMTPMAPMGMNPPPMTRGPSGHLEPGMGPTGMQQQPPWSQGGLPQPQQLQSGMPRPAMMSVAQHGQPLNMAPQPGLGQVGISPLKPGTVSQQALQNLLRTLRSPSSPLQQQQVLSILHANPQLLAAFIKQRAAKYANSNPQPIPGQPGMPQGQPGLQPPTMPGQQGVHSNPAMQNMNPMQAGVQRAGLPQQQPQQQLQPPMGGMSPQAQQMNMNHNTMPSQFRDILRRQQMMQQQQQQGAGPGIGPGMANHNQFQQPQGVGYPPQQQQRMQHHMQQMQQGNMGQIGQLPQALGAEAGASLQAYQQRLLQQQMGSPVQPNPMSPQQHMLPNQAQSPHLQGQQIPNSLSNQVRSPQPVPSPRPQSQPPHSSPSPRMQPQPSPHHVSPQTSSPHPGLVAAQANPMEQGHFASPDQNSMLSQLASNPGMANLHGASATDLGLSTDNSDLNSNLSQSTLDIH
Method: Microtitre wells were coated with 100 ng of streptavidin and incubated overnight at room temperature. To prevent non-specific binding, 100 μl of 3% BSA, PBS, 01% Tween 20 was added and incubated for 1 hour at 4° C. Wells were washed 3 times with 180 μl PBSM 0.1% Tween 20 and biotinylated peptides, resuspended in 50 μl/well of 3% BSA, PBS, 0.1% Tween 20/NaF/Beta-phosphoglycerate, were incubated for 1 hour at 4° C. Non-specific binding sites were blocked by adding 180 μl 5% milk powder, PBS, 0.1 Tween 20/NaF/Beta-phosphoglycerate for 30 minutes at 4° C. before adding p300 resuspended in 50 ml/well of Sf9LB. Where plant extract was added to p300, the reaction was incubated for 30 minutes before adding to wells. The reaction was the incubated for 1 hour at 4° C. and then the wells were rigorously washed 3 times with 180 μl PBS, 0.1%, Tween 20 before incubating for 1 hour with specific antibodies in 50 μl/well 5% milk powder, PBS, 0.1% Tween 20/NaF/Beta-phosphoglycerate. Wells were given another 3 washes with PBS, 0.1%, Tween 20 to remove unbound antibody and specific binding was detected with secondary antibody (anti-mouse or anti-rabbit) conjugated to horse radish peroxidase (HRP). The binding was detected by ECL and quantified using a luminometer (Fluoroskan Ascent FL).
Plates were rigorously washed 3 times with PBST20 (0.1% v/v) to reduce the non-specific binding. Primary antibodies anti-p300(N-15) (Santa Cruz Biotechnology Inc.), anti-FLAG (Sigma) and anti-Mdm2 (2A10) (Movarian Biotechnologies) were used and the appropriate secondary antibody cross-linked to HRP. The signal detected by Enhanced Chemoluminescence was developed using Fluoroskan Ascent FL.

binding of full-length p300 protein to the peptide (RLU) (full-length p300 protein)	Substance	cell cycle effect (G2/M arrest) (HCT116 (p53^+/+) cells)	p53-p300 co-stimulated transactivation, p21 promoter [1]	p53-p300 co-stimulated transactivation, bax promoter [2]	basal p53-dependent transactivation of the p21 promoter [3]	further results
did not restore binding activity	p53PRO (69-88): p53 polyproline peptide amino acids 69-88 (AAPPVAPAPAAPTPAAPAPA; UniProt P04637 69-88, looked up, fragment)	–	–	–	–	–
relatively high affinity	C-terminal end of the SMAD4 polyproline domain: peptide from the Smad-4 proline-rich region (aa 275-303), C-terminal end (PYTPNLPHHQNGHLQHHPPMPPHPGHYWP; UniProt Q13485 275-303, looked up, fragment)	–	–	–	–	–
high affinity	p53 polyproline peptide (83-102): p53 polyproline peptide containing amino acids 83-102 (AAPAPAPSWPLSSSVPSQKT; UniProt P04637 83-102, looked up, fragment)	–	–	–	–	–

Continued, substance first:

Substance	binding of full-length p300 protein to the peptide (RLU) (full-length p300 protein)	cell cycle effect (G2/M arrest) (HCT116 (p53^+/+) cells)	p53-p300 co-stimulated transactivation, p21 promoter [1]	p53-p300 co-stimulated transactivation, bax promoter [2]	basal p53-dependent transactivation of the p21 promoter [3]	further results
EPPLSQETFSDLWKLLPENN [EGFP-BOX-I]	–	relatively insignificant role in altering cell-cycle parameters	stimulated p53 activity	stimulated p53 activity	expected increase in p53-dependent transactivation	p53 protein levels (immunoblot) [1]: increased; p53-dependent gene expression in irradiated cells ([3]; A375 cells, ionizing radiation (5 Gy) or UV-C (20 J/m^2), p21-Luc): stimulated p53 activity in the irradiated cell
EPPLSQETFDDLWKL LPENN [EGFP-S20D]	–	induced a prominent G2/M arrest	inhibited synergism between p53 and p300; also recorded: inhibits transactivation	inhibited synergism between p53 and p300; also recorded: inhibits transactivation	inhibiting p53 activity to the highest degree	p53 protein levels (immunoblot) [1]: increased; cell cycle effect (G2/M arrest) (HCT116 p53^−/− cells): failed to elicit a defined G2/M arrest
UBF1 (231-246): consensus peptide from UBF1, amino acids 231-246 (GKQWSQLSDKKRLKWI; UniProt P17480 231-246, looked up, fragment)	did not bind p300	–	–	–	–	–
UBF1 (321-336): consensus peptide from UBF1, amino acids 321-336 (STERMVLCSQQWKLLS; UniProt P17480 321-336, looked up, fragment)	affinity slightly less than the p53 BOX-I-Ser^20 phospho-peptide	–	–	–	–	–
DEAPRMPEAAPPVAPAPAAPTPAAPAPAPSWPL [EGFP-PRO]	–	more striking arrest in G2/M phase	striking inhibition of p53-p300 co-stimulation	striking inhibition of p53-p300 co-stimulation	inhibit endogenous p53-dependent transcription compared to the EGFP-NS peptide and with the same potency as the EGFP-S20D peptide	cell cycle effect (G2/M arrest) (HCT116 p53^−/− cells): similarly induced a G2/M arrest

From US20040132108A1, “Screening methods and agents” (priority 2001, published 2004)
